In ChEMBL document CHEMBL1697731, “Cheminformatics analysis of assertions mined from literature that describe drug-induced liver injury in different species” (Chem Res Toxicol, 2010):

Legend:
[1] = tested on: Hepatotoxicity; assay: Literature-mined compound from Fourches et al multi-species drug-induced liver injury (DILI) dataset, effect in humans; details: human
[2] = tested on: Hepatotoxicity; assay: Literature-mined compound from Fourches et al multi-species drug-induced liver injury (DILI) dataset, effect in rodents; details: rodentia
[3] = tested on: Hepatotoxicity; assay: Literature-mined compound from Fourches et al multi-species drug-induced liver injury (DILI) dataset, effect in non-rodents

Structure (SMILES) | Hepatotoxicity [1] | Hepatotoxicity [2] | Hepatotoxicity [3] | Hepatotoxicity ([2]; Liver) | Hepatotoxicity ([3]; Liver)
CC(C)CN(C[C@@H](O)[C@H](Cc1ccccc1)NC(=O)O[C@H]1CCOC1)S(=O)(=O)c1ccc(N)cc1 | drug-induced liver injury reported | no drug-induced liver injury reported | no drug-induced liver injury reported | – | –
FC(F)OC(F)C(F)(F)F (configuration not stated) | drug-induced liver injury reported | drug-induced liver injury reported | no drug-induced liver injury reported | – | –
CCN1CC(CCN2CCOCC2)C(c2ccccc2)(c2ccccc2)C1=O.Cl (configuration not stated) | drug-induced liver injury reported | no drug-induced liver injury reported | no drug-induced liver injury reported | – | –
C[C@@H](O)[C@H](NC(=O)N(C)c1ncnc2c1ncn2[C@@H]1O[C@H](COP(=O)(O)O)[C@@H](O)[C@H]1O)C(=O)O | no drug-induced liver injury reported | drug-induced liver injury reported | no drug-induced liver injury reported | – | –
FC(F)OC(F)(F)C(F)Cl (configuration not stated) | drug-induced liver injury reported | drug-induced liver injury reported | drug-induced liver injury reported | – | –
C[C@H](NC(=O)C(=O)Nc1ccccc1C(C)(C)C)C(=O)N[C@@H](CC(=O)O)C(=O)COc1c(F)c(F)cc(F)c1F | no drug-induced liver injury reported | drug-induced liver injury reported | no drug-induced liver injury reported | – | –
CCC(=C(c1ccc(O)cc1)c1ccc(OCCN(C)C)cc1)c1ccccc1 | drug-induced liver injury reported | drug-induced liver injury reported | no drug-induced liver injury reported | – | –
CCOC(=O)[C@H](CCc1ccccc1)N[C@@H](C)C(=O)N1C(=O)N(C)C[C@H]1C(=O)O | no drug-induced liver injury reported | drug-induced liver injury reported | no drug-induced liver injury reported | – | –
C=C1[C@H](CO)[C@@H](O)C[C@@H]1n1cnc2c(=O)[nH]c(N)nc21.O | drug-induced liver injury reported | no drug-induced liver injury reported | no drug-induced liver injury reported | – | –
CC(C)(C)NC(=O)[C@@H]1CN(Cc2cccnc2)CCN1C[C@@H](O)C[C@@H](Cc1ccccc1)C(=O)N[C@H]1c2ccccc2C[C@H]1O.O | drug-induced liver injury reported | drug-induced liver injury reported | no drug-induced liver injury reported | – | –
CCOC(=O)[C@H](CCc1ccccc1)N[C@@H](C)C(=O)N1CCC[C@H]1C(=O)O | drug-induced liver injury reported | drug-induced liver injury reported | no drug-induced liver injury reported | – | –
CCN(CC)CCOc1ccc(C(=C(Cl)c2ccccc2)c2ccccc2)cc1 (stereo in doubt; form 2) [CLOMIPHENE] | no drug-induced liver injury reported | drug-induced liver injury reported | – | – | –
C[C@]12CCC(=O)C=C1CC[C@@H]1[C@@H]2CC[C@@]2(C)[C@H]1CC[C@]2(C)O (stereo in doubt; form 2) [METHYLTESTOSTERONE] | drug-induced liver injury reported | – | – | – | –
CC(=O)[C@H]1CC[C@H]2[C@@H]3CCC4=CC(=O)CC[C@]4(C)[C@H]3CC[C@]12C (stereo in doubt; form 2) [PROGESTERONE] | – | no drug-induced liver injury reported | no drug-induced liver injury reported | – | –
NCC(=O)O [GLYCINE] | – | – | – | drug-induced liver injury reported | drug-induced liver injury reported
Cc1ncc(CO)c(CO)c1O [PYRIDOXINE] | – | – | – | drug-induced liver injury reported | no drug-induced liver injury reported
